Here are results for 30 compounds from patent US8680113B2, “BMI-1 protein expression modulators” (PTC Therapeutics, Inc., priority 2008, dated 2014).

A value given as a limit tells only on which side of the number the result lay.

In the test the test system is Bmi-1. Kind of test: Sandwich ELISA Assay (Bmi-1 ELISA in HT-1080 cells). The test is classed as cell-based, human. Summed up: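 HT-1080 cells (8000/well) were treated with compounds in 0.5% final DMSO for 40-48 h at 37°C and then lysed. Bmi-1 in lysates was measured by sandwich ELISA: overnight capture at 4°C on mouse monoclonal, rabbit anti-Bmi-1 detection, HRP anti-rabbit, TMB. OD450 was read with an OD570 reference against a recombinant GST-Bmi-1 standard curve (0-8000 pg/mL).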
Background: In an ELISA, binding on a coated surface is turned into a signal by an enzyme label.
Take `CC(=O)c1ccc(Nc2nccc(-c3c(C)nc4ccccn34)n2)cc1` [Cpd 117, 1-(4-{[4-(2-methylimidazo[1,2-a]pyridin-3-yl)pyrimidin-2-yl]amino}phenyl)ethanone]: the IC50 (commonly the concentration that gives 50% inhibition) is under 500 nM.

`Cc1nc2ccccn2c1-c1ccnc(Nc2cccc(N(C)C)c2)n1` [Cpd 118, N,N-dimethyl-N′-[4-(2-methylimidazo[1,2-a]pyridin-3-yl)pyrimidin-2-yl]benzene-1,3-diamine] displayed an IC50 of under 500 nM.

Take `Cc1nc2ccccn2c1-c1ccnc(Nc2ccc(I)cc2)n1` [Cpd 119, N-(4-iodophenyl)-4-(2-methylimidazo[1,2-a]pyridin-3-yl)pyrimidin-2-amine]: the IC50 is under 500 nM.

`Cc1nc2ncccn2c1-c1ccnc(Nc2ccc(I)cc2)n1` [Cpd 120, N-(4-iodophenyl)-4-(2-methylimidazo[1,2-a]pyrimidin-3-yl)pyrimidin-2-amine]: the IC50 was under 500 nM.

For the compound `Cc1nc2ncccn2c1-c1nc(Nc2ccc(Br)cc2)sc1C` [Cpd 121, N-(4-bromophenyl)-5-methyl-4-(2-methylimidazo[1,2-a]pyrimidin-3-yl)-1,3-thiazol-2-amine], the IC50 was under 500 nM.

For the compound `Cc1nc2ncccn2c1-c1nc(Nc2ccc(I)cc2)sc1C` [Cpd 122, N-(4-iodophenyl)-5-methyl-4-(2-methylimidazo[1,2-a]pyrimidin-3-yl)-1,3-thiazol-2-amine], the IC50 was under 500 nM.

Consider `Cc1nc2ccccn2c1-c1ccnc(Nc2ccc3c(c2)OCO3)n1` [Cpd 123, N-(1,3-benzodioxol-5-yl)-4-(2-methylimidazo[1,2-a]pyridin-3-yl)pyrimidin-2-amine], for which the IC50 is under 500 nM.

As to `Cc1nc2ncccn2c1-c1ccnc(Nc2ccc3c(c2)OCO3)n1` [Cpd 124, N-(1,3-benzodioxol-5-yl)-4-(2-methylimidazo[1,2-a]pyrimidin-3-yl)pyrimidin-2-amine], the 50% inhibitory concentration (IC50) was under 500 nM.

As to `Cc1nc2ncccn2c1-c1ccnc(N(C)c2ccc(I)cc2)n1` [Cpd 125, N-(4-iodophenyl)-N-methyl-4-(2-methylimidazo[1,2-a]pyrimidin-3-yl)pyrimidin-2-amine], the half-inhibitory concentration (IC50) is under 500 nM.

Take `Cc1nc2ncccn2c1-c1ccnc(Nc2ccc(Br)cc2)n1` [Cpd 126, N-(4-bromophenyl)-4-(2-methylimidazo[1,2-a]pyrimidin-3-yl)pyrimidin-2-amine]: the IC50 is under 500 nM.

Compound `Cc1nc2ccccn2c1-c1ccnc(Nc2cccc(Br)c2)n1` [Cpd 127, N-(3-bromophenyl)-4-(2-methylimidazo[1,2-a]pyridin-3-yl)pyrimidin-2-amine] showed an IC50 of under 500 nM.

Regarding `Cc1nc2ccccn2c1-c1ccnc(Nc2ccc(N(C)C)cc2)n1` [Cpd 129, N,N-dimethyl-N′-[4-(2-methylimidazo[1,2-a]pyridin-3-yl)pyrimidin-2-yl]benzene-1,4-diamine], the IC50 is under 500 nM.

Compound `CCN(CC)c1ccc(Nc2nccc(-c3c(C)nc4ccccn34)n2)cc1` [Cpd 130, N,N-diethyl-N′-[4-(2-methylimidazo[1,2-a]pyridin-3-yl)pyrimidin-2-yl]benzene-1,4-diamine] came in with a concentration for half-maximal inhibition (IC50) of under 500 nM.

In turn, `CC(=O)c1ccc(Nc2nccc(-c3c(C)nc4ncccn34)n2)cc1` [Cpd 131, 1-(4-{[4-(2-methylimidazo[1,2-a]pyrimidin-3-yl)pyrimidin-2-yl]amino}phenyl)ethanone] yielded an IC50 of under 500 nM.

As to `Cc1nc2ccc(Cl)cn2c1-c1csc(Nc2ccc(Br)cc2Cl)n1` [Cpd 132, N-(4-bromo-2-chlorophenyl)-4-(6-chloro-2-methylimidazo[1,2-a]pyridin-3-yl)-1,3-thiazol-2-amine], the IC50 was under 500 nM.

For the compound `Cc1nc2ccc(Cl)cn2c1-c1csc(Nc2ccccc2)n1` [Cpd 133, 4-(6-chloro-2-methylimidazo[1,2-a]pyridin-3-yl)-N-phenyl-1,3-thiazol-2-amine], the IC50 is under 500 nM.

Turning to `Clc1ccc2ncc(-c3csc(Nc4c(Br)cc(Br)cc4Br)n3)n2c1` [Cpd 135, 4-(6-chloroimidazo[1,2-a]pyridin-3-yl)-N-(2,4,6-tribromophenyl)-1,3-thiazol-2-amine], the IC50 is under 500 nM.

The compound `Clc1cc(Cl)c(Nc2nc(-c3cnc4ccc(Cl)cn34)cs2)c(Cl)c1` [Cpd 136, 4-(6-chloroimidazo[1,2-a]pyridin-3-yl)-N-(2,4,6-trichlorophenyl)-1,3-thiazol-2-amine] had an IC50 of 500 to 1000 nM.

`Cc1nc2ccccn2c1-c1ccnc(N(C)c2ccc(N(C)C)cc2)n1` [Cpd 137, N,N,N′-trimethyl-N′-[4-(2-methylimidazo[1,2-a]pyridin-3-yl)pyrimidin-2-yl]benzene-1,4-diamine] came in with an IC50 of under 500 nM.

As to `CCN(CC)c1ccc(N(C)c2nccc(-c3c(C)nc4ccccn34)n2)cc1` [Cpd 138, N,N-diethyl-N′-methyl-N′-[4-(2-methylimidazo[1,2-a]pyridin-3-yl)pyrimidin-2-yl]benzene-1,4-diamine], the IC50 was under 500 nM.

The compound `Cc1nc2ccccn2c1-c1ccnc(N(C)c2ccc3c(c2)OCO3)n1` [Cpd 139, N-(1,3-benzodioxol-5-yl)-N-methyl-4-(2-methylimidazo[1,2-a]pyridin-3-yl)pyrimidin-2-amine] showed an IC50 of under 500 nM.

In turn, `Cc1nc2ncccn2c1-c1ccnc(N(C)c2ccccc2Cl)n1` [Cpd 140, N-(2-chlorophenyl)-N-methyl-4-(2-methylimidazo[1,2-a]pyrimidin-3-yl)pyrimidin-2-amine] had an IC50 of under 500 nM.

In the case of `COc1cc(C)c(Nc2nccc(-c3c(C)nc4ccccn34)n2)c(C)c1` [Cpd 141, N-(4-methoxy-2,6-dimethylphenyl)-4-(2-methylimidazo[1,2-a]pyridin-3-yl)pyrimidin-2-amine], the half-inhibitory concentration (IC50) was under 500 nM.

With `CCOc1ccc(N(C)c2nccc(-c3c(C)nc4ccccn34)n2)cc1` [Cpd 142, N-(4-ethoxyphenyl)-N-methyl-4-(2-methylimidazo[1,2-a]pyridin-3-yl)pyrimidin-2-amine], the IC50 was under 500 nM.

In the case of `Cc1nc2ccccn2c1-c1ccnc(N(C)c2ccc(I)cc2)n1` [Cpd 143, N-(4-iodophenyl)-N-methyl-4-(2-methylimidazo[1,2-a]pyridin-3-yl)pyrimidin-2-amine], the IC50 was 500 to 1000 nM.

As to `CCc1nc2ncccn2c1-c1csc(Nc2ccc(OC)cc2)n1` [Cpd 144, 4-(2-ethylimidazo[1,2-a]pyrimidin-3-yl)-N-(4-methoxyphenyl)-1,3-thiazol-2-amine], the half-inhibitory concentration (IC50) is under 500 nM.

With `CCc1nc2ncccn2c1-c1csc(Nc2ccc(N(C)C)cc2)n1` [Cpd 145, N′-[4-(2-ethylimidazo[1,2-a]pyrimidin-3-yl)-1,3-thiazol-2-yl]-N,N-dimethylbenzene-1,4-diamine], the IC50 is under 500 nM.

Take `CCc1nc2ncccn2c1-c1csc(Nc2c(Br)cc(OC)cc2Br)n1` [Cpd 146, N-(2,6-dibromo-4-methoxyphenyl)-4-(2-ethylimidazo[1,2-a]pyrimidin-3-yl)-1,3-thiazol-2-amine]: the IC50 was under 500 nM.

The compound `CCc1nc2ncccn2c1-c1csc(Nc2ccc(Cl)cc2)n1` [Cpd 147, N-(4-chlorophenyl)-4-(2-ethylimidazo[1,2-a]pyrimidin-3-yl)-1,3-thiazol-2-amine] gave an IC50 of under 500 nM.

In turn, `CCc1nc2ncccn2c1-c1csc(Nc2ccc(Br)cc2)n1` [Cpd 148, N-(4-bromophenyl)-4-(2-ethylimidazo[1,2-a]pyrimidin-3-yl)-1,3-thiazol-2-amine] came in with a concentration for half-maximal inhibition (IC50) of under 500 nM.
